Assay results published in article PMC6468543, “Rational Design, Synthesis and Preliminary Evaluation of Novel Fusarinine C-Based Chelators for Radiolabeling with Zirconium-89” (Biomolecules, 2019).
Entries after “also recorded” stand apart in the source; their conditions may differ. Where two headings read alike, the source gives them in different places.

Columns and labels:
[1] = Solubility in water; type: physicochemical; details: unlabeled chelator
[2] = Stability assay in human serum; type: in vitro ADME; details: 37 °C, incubation time 7 days
Procedure: (§1) Determination of the stability of [^89Zr]Zr-DFO, [^89Zr]Zr-TAFC, [^89Zr]Zr-FSC(succ)2AA and [^89Zr]Zr-FSC(succ)3 was carried out by incubating the radioligands in PBS, a 1000-fold molar excess of ethylenediaminetetraacetic acid (EDTA) solution (radioligand vs. […] Then, the precipitate was washed three times using CH3CN before analysis.

[3] = Transchelation study: 89Zr-FSC derivative complexes with 1000-fold molar excess of DFO; type: physicochemical; details: RT, after 7 days
Procedure: (§2) [^89Zr]Zr-DFO (50 µL) was mixed with a 1000-fold molar excess of either FSC(succ)2AA or FSC(succ)3 and [^89Zr]Zr-TAFC (or [^89Zr]Zr-FSC(succ)2AA, [^89Zr]Zr-FSC(succ)3) (50 µL each) was mixed with a 1000-fold molar excess of DFO and incubated for seven days at RT. At selected time points, aliquots of the solutions were analyzed in triplicate directly via analytical RP-HPLC. The transchelation was determined by the ratio of [^89Zr]Zr-DFO and [^89Zr]Zr-FSC derivatives.

[4] = Acid dissociation study in 1000-fold molar excess of EDTA solution; type: physicochemical
Procedure: as §1

[5] = Protein binding assay in fresh human serum (size exclusion spin column); type: in vitro ADME; details: 37 °C, incubation time 7 days
Procedure: The protein binding property was evaluated by incubating [^89Zr]Zr-FSC(succ)2AA or [^89Zr]Zr-FSC(succ)3 for seven days at 37 °C in fresh human serum. Subsequently, 30 µL of the solution was passed through a size exclusion spin column (MicroSpinG-50 column, GE Healthcare, Buckinghamshire, UK) via centrifugation at 2000 rcf for 2 min. Protein binding of the complexes in triplicate was determined by measuring the activity on the column (non-protein bound) and the activity in the eluate (protein bound) in the gamma counter.

[6] = Distribution coefficient (logD), octanol/PBS; type: physicochemical; details: n = 5
Procedure: A volume of 500 µL PBS including 0.5 MBq radioligand ([^89Zr]Zr-FSC(succ)2AA or [^89Zr]Zr-FSC(succ)3) was combined with 500 µL octanol. The mixture was vortexed for 15 min, and centrifuged for 2 min at 2000 rcf. Subsequently, 50 µL aliquots of the aqueous and the octanol layer were collected, measured in a 2480 Wizard^2 Automatic Gamma Counter (Perkin Elmer, Vienna, Austria), and distribution coefficient (logD) values were calculated using Excel 2013 (n = 5) (Redmond, WA, USA).

[7] = parameters: method as in PMID 25941834; details: incubation time 7 days, previously reported data; cited from earlier work
[8] = MicroPET/CT imaging, image-based quantitation of bone uptake (knee); type: in vivo, BALB/c mice; details: BALB/c mouse, i.v., 24 h p.i., mean of left and right knees, n = 1
Procedure: Micro-Positron Emission Tomography/computer tomography (MicroPET/CT) imaging studies were carried out using an Inveon microPET/CT scanner (Siemens Preclinical Solutions, Knoxville, TN, USA). Healthy female BALB/c mice were injected intravenously with 5 MBq of either [^89Zr]Zr-FSC(succ)3 (16 µg, n = 1) or [^89Zr]Zr-TAFC (13 µg, n = 1). MicroPET/CT images were acquired under general anesthesia (isoflurane/O2) for 20 min. Imaging data were recorded via static scans at 80 min and 24 h p.i. The microPET/CT scans were reconstructed and merged with OSEM3D-SPMAP (PET, matrix size 256 × 256) and Feldkamp (CT, Shepp Logan filter). For evaluation of bone uptake, image-based quantitation was carried out by selecting volumes of interest around each knee region and % ID/cm^3 were calculated for both time points (VivoQuant image analysis software, Invicro LLC, Boston, MA, USA) and expressed as mean values of left and right knees to compare both compounds.

[9] = parameters: method as in PMID 25941834; details: previously reported data; cited from earlier work
[10] = parameters: method as in PMID 25941834; details: human serum, incubation time 7 days, previously reported data; cited from earlier work
[11] = Biodistribution study in BALB/c mice; type: in vivo; details: i.v., 6 h p.i., n = 4
Procedure: For the evaluation of biodistribution, four female BALB/c mice (Charles River Laboratories, Sulzfeld, Germany) were intravenously injected with [^89Zr]Zr-FSC(succ)3 (1.5 MBq/mouse, 4.8 µg precursor) or [^89Zr]Zr-TAFC (1.5 MBq/mouse, 4 µg) into the tail vein and sacrificed by cervical dislocation at 6 h post injection (p.i.). Organs (spleen, pancreas, stomach, intestine, kidney, liver, heart, and lung), blood, muscle tissue, and bone were dissected, weighed and then measured in the gamma counter to calculate the percentage of injected dose per gram of tissue (% ID/g). Statistical analysis was performed using an independent two-population t-test (significance level p = 0.05) and Origin 6.1 software (Northampton, MA, USA).

[12] = Transchelation study: [89Zr]Zr-DFO with 1000-fold molar excess of FSC(succ)2AA or FSC(succ)3; type: physicochemical; details: 1000-fold molar excess of FSC(succ)2AA or FSC(succ)3, RT, within 1 h
Procedure: as §2

Row | SMILES | solubility in water [1] | Stability in Human Serum (%) [2] [%] | intact complex [3] [%] | intact complex ([4]; pH 6, 37 °C) [%] | resistance to transchelation ([4]; pH 7, over seven days, 37 °C) | Protein Binding (%) [5] [%] | Log D [6] | bone uptake in the knee [8] [% ID/cm^3] | intact complex ([4]; pH 4, day 7, 37 °C) [%] | activity in blood [11] [% ID/g] | Stability in Human Serum (%) [7] [%] | Log D [9] | Protein Binding (%) [10] [%] | also measured
1 | C/C1=C/C(=O)N(O)CCCC(NC(=O)CCC(=O)O)C(=O)OCC/C(C)=C\C(=O)N(O)CCCC(NC(=O)CCC(=O)O)C(=O)OCC/C(C)=C\C(=O)N(O)CCCC(NC(=O)CCC(=O)O)C(=O)OCC1 (stereo not drawn) [FSC(succ)3, Fusarinine C (succ)3] | high solubility in water | – | – | – | – | – | – | – | – | – | – | – | – | –
2 | CC(=O)NC1CCCN([O-])C(=O)C=C(C)CCOC(=O)C(NC(=O)CCC(=O)[O-])CCCN([O-])C(=O)C=C(C)CCOC(=O)C(NC(=O)CCC(=O)[O-])CCCN([O-])C(=O)C=C(C)CCOC1=O.[89Zr+4] (mixture of isomers) [[^89Zr]Zr-FSC(succ)2AA] | – | 99.4 | 30.8 | 76 | excellent resistance to transchelation | 5.9 ± 1.6 | −3.3 ± 0.1 | – | – | – | – | – | – | –
3 | CC1=CC(=O)N([O-])CCCC(NC(=O)CCC(=O)[O-])C(=O)OCCC(C)=CC(=O)N([O-])CCCC(NC(=O)CCC(=O)O)C(=O)OCCC(C)=CC(=O)N([O-])CCCC(NC(=O)CCC(=O)[O-])C(=O)OCC1.[89Zr+4] (mixture of isomers) [[^89Zr]Zr-FSC(succ)3] | – | 99.5 | 62.1 | 97.8 | excellent resistance to transchelation | 8.3 ± 3.5 | −3.5 ± 0.4 | 0.026 | 87.9 | 0.11 ± 0.08 | – | – | – | activity in bone [11]: 0.24 ± 0.04 % ID/g; activity in heart [11]: 0.28 ± 0.08 % ID/g; activity in lung [11]: 0.21 ± 0.04 % ID/g; activity in muscle [11]: 0.25 ± 0.07 % ID/g
4 | CC(=O)N([O-])CCCCCNC(=O)CCC(=O)N([O-])CCCCCNC(=O)CCC(=O)N([O-])CCCCCN.[89Zr+4] [[^89Zr]Zr-DFO, ^89Zr-desferrioxamine B] | – | – | – | – | – | – | – | – | – | – | 99.3 | −3.0 ± 0.1 | 8.7 ± 1.0 | transchelation of 89Zr from [89Zr]Zr-DFO to FSC(succ)2AA or FSC(succ)3 [12]: Almost quantitative transchelation; also recorded: total transchelation; acid dissociation (decomposition) ([4]; pH 4): totally decomposing on day 3; transchelation ([4]; pH 7, over seven days, 37 °C): ~60%

The next lines start with results.

Row | solubility in water [1] | Stability in Human Serum (%) [2] [%] | intact complex [3] [%] | intact complex ([4]; pH 6, 37 °C) [%] | resistance to transchelation ([4]; pH 7, over seven days, 37 °C) | Protein Binding (%) [5] [%] | Log D [6] | bone uptake in the knee [8] [% ID/cm^3] | intact complex ([4]; pH 4, day 7, 37 °C) [%] | activity in blood [11] [% ID/g] | SMILES | Stability in Human Serum (%) [7] [%] | Log D [9] | Protein Binding (%) [10] [%] | also measured
5 | high solubility in water | – | – | – | – | – | – | – | – | – | CC(=O)NC1CCCN(O)C(=O)/C=C(/C)CCOC(=O)C(NC(=O)CCC(=O)O)CCCN(O)C(=O)/C=C(/C)CCOC(=O)C(NC(=O)CCC(=O)O)CCCN(O)C(=O)/C=C(/C)CCOC1=O (stereo not drawn) [FSC(succ)2AA, Fusarinine C(succ)2AA] | – | – | – | –
6 | – | – | 39.8 | 94.4 | excellent resistance to transchelation | – | – | 0.016 | 70.3 | 0.05 ± 0.01 | CC(=O)NC1CCCN([O-])C(=O)/C=C(/C)CCOC(=O)C(NC(C)=O)CCCN([O-])C(=O)/C=C(/C)CCOC(=O)C(NC(C)=O)CCCN([O-])C(=O)/C=C(/C)CCOC1=O.[89Zr+4] (stereo not drawn) [[^89Zr]Zr-TAFC, ^89Zr-triacetylfusarinine C, reference compound] | 99.5 | −2.0 ± 0.0 | 6.8 ± 0.5 | –
